Measured values reported in PubChem BioAssay AID1963435 (Molecular Pharmacology Branch, DTP, NCI, 2024).

System: PANC-1 complex spheroid growth, percent test/control
Test: Anticancer human tumor PANC-1 cell line growth inhibition [Asc];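 also: spheroids exposed to agents for 7 days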;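 as to viability, T/C: percent viability relative to DMSO vehicle wells taken as 100%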
Details: for viability, T/C: stronger effect = lower value
Procedure, shortened: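 Complex solid-tumor spheroids incorporating human endothelial and mesenchymal stem cells received single agents or combinations over half-log dilution ranges anchored to clinical Cmax.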

SMILES: C#Cc1c(F)ccc2cc(O)cc(-c3ncc4c(N5CC6CCC(C5)N6)nc(OCC56CCCN5CC(F)C6)nc4c3F)c12 (configuration not stated) + CCN1C(C(=O)NC23CCC(C(=O)O)(CC2)CC3)C(c2cccc(Cl)c2F)C2(C(=O)Nc3cc(Cl)ccc32)C12CCCCC2
- IC50 (curve of first compound, second compound 0.00949 µM): > 10000 nM
- IC50 (curve of first compound, second compound 0.03 µM): > 10000 nM
- IC50 (curve of first compound, second compound 0.0949 µM): > 10000 nM
- IC50 (curve of first compound, second compound 0.3 µM): > 10000 nM
- IC50 (curve of first compound, second compound 0.949 µM): > 10000 nM
- IC50 (curve of first compound, second compound 3 µM): > 10000 nM
- viability, T/C (second compound 0.00949 µM, first compound 0.0316 µM): 99.1%
- viability, T/C (second compound 0.00949 µM, first compound 0.1 µM): 79.1%
- viability, T/C (second compound 0.00949 µM, first compound 0.316 µM): 89.9%
- viability, T/C (second compound 0.00949 µM, first compound 1 µM): 90.8%
- viability, T/C (second compound 0.00949 µM, first compound 3.16 µM): 96.3%
- viability, T/C (second compound 0.00949 µM, first compound 10 µM): 84%
- viability, T/C (second compound 0.03 µM, first compound 0.0316 µM): 93.3%
- viability, T/C (second compound 0.03 µM, first compound 0.1 µM): 90.2%
- viability, T/C (second compound 0.03 µM, first compound 0.316 µM): 83.4%
- viability, T/C (second compound 0.03 µM, first compound 1 µM): 92.6%
- viability, T/C (second compound 0.03 µM, first compound 3.16 µM): 94.3%
- viability, T/C (second compound 0.03 µM, first compound 10 µM): 82.3%
- viability, T/C (second compound 0.0949 µM, first compound 0.0316 µM): 94%
- viability, T/C (second compound 0.0949 µM, first compound 0.1 µM): 84.3%
- viability, T/C (second compound 0.0949 µM, first compound 0.316 µM): 85%
- viability, T/C (second compound 0.0949 µM, first compound 1 µM): 82.2%
- viability, T/C (second compound 0.0949 µM, first compound 3.16 µM): 90.6%
- viability, T/C (second compound 0.0949 µM, first compound 10 µM): 88.8%
- viability, T/C (second compound 0.3 µM, first compound 0.0316 µM): 97%
- viability, T/C (second compound 0.3 µM, first compound 0.1 µM): 84.3%
- viability, T/C (second compound 0.3 µM, first compound 0.316 µM): 92.6%
- viability, T/C (second compound 0.3 µM, first compound 1 µM): 93.2%
- viability, T/C (second compound 0.3 µM, first compound 3.16 µM): 98.7%
- viability, T/C (second compound 0.3 µM, first compound 10 µM): 90.9%
- viability, T/C (second compound 0.949 µM, first compound 0.0316 µM): 98.4%
- viability, T/C (second compound 0.949 µM, first compound 0.1 µM): 85.5%
- viability, T/C (second compound 0.949 µM, first compound 0.316 µM): 92.8%
- viability, T/C (second compound 0.949 µM, first compound 1 µM): 90.5%
- viability, T/C (second compound 0.949 µM, first compound 3.16 µM): 93.7%
- viability, T/C (second compound 0.949 µM, first compound 10 µM): 82.8%
- viability, T/C (second compound 3 µM, first compound 0.0316 µM): 104%
- viability, T/C (second compound 3 µM, first compound 0.1 µM): 91.7%
- viability, T/C (second compound 3 µM, first compound 0.316 µM): 89.2%
- viability, T/C (second compound 3 µM, first compound 1 µM): 87.7%
- viability, T/C (second compound 3 µM, first compound 3.16 µM): 95.1%
- viability, T/C (second compound 3 µM, first compound 10 µM): 82.6%

SMILES: CNC(C)C(=O)NC1CN(S(=O)(=O)c2cccc(S(=O)(=O)N3CCC4CCC(C(=O)NC(c5ccccc5)c5ccccc5)N4C(=O)C(NC(=O)C(C)NC)C3)c2)CCC2CCC(C(=O)NC(c3ccccc3)c3ccccc3)N2C1=O (configuration not stated)
- viability, T/C (compound 0.00316 µM): 107% [middle of 9 runs]
- viability, T/C (compound 0.01 µM): 102% [middle of 9 runs]
- viability, T/C (compound 0.0316 µM): 98.1% [middle of 9 runs]
- viability, T/C (compound 0.1 µM): 96.1% [middle of 9 runs]
- viability, T/C (compound 0.316 µM): 93.5% [middle of 9 runs]
- viability, T/C (compound 1 µM): 89.2% [middle of 9 runs]
- IC50 (compound alone, run of 11/15/2022): > 1000 nM
- IC50 (curve of compound): > 1000 nM

SMILES: O=C(c1ccc(F)c(F)c1Nc1ccc(I)cc1F)N1CC(O)([C@@H]2CCCCN2)C1 + CNC(C)C(=O)NC1CN(S(=O)(=O)c2cccc(S(=O)(=O)N3CCC4CCC(C(=O)NC(c5ccccc5)c5ccccc5)N4C(=O)C(NC(=O)C(C)NC)C3)c2)CCC2CCC(C(=O)NC(c3ccccc3)c3ccccc3)N2C1=O
- IC50 (curve of first compound, second compound 0.00316 µM): > 1000 nM
- IC50 (curve of first compound, second compound 0.01 µM): > 1000 nM
- IC50 (curve of first compound, second compound 0.0316 µM): > 1000 nM
- IC50 (curve of first compound, second compound 0.1 µM): > 1000 nM
- IC50 (curve of first compound, second compound 0.316 µM): > 1000 nM
- IC50 (curve of first compound, second compound 1 µM): > 1000 nM
- viability, T/C (second compound 0.00316 µM, first compound 0.00316 µM): 98.6%
- viability, T/C (second compound 0.00316 µM, first compound 0.01 µM): 88.8%
- viability, T/C (second compound 0.00316 µM, first compound 0.0316 µM): 90.1%
- viability, T/C (second compound 0.00316 µM, first compound 0.1 µM): 88%
- viability, T/C (second compound 0.00316 µM, first compound 0.316 µM): 90.5%
- viability, T/C (second compound 0.00316 µM, first compound 1 µM): 84.9%
- viability, T/C (second compound 0.01 µM, first compound 0.00316 µM): 104%
- viability, T/C (second compound 0.01 µM, first compound 0.01 µM): 86.1%
- viability, T/C (second compound 0.01 µM, first compound 0.0316 µM): 89.5%
- viability, T/C (second compound 0.01 µM, first compound 0.1 µM): 89%
- viability, T/C (second compound 0.01 µM, first compound 0.316 µM): 85.9%
- viability, T/C (second compound 0.01 µM, first compound 1 µM): 85.2%
- viability, T/C (second compound 0.0316 µM, first compound 0.00316 µM): 88.2%
- viability, T/C (second compound 0.0316 µM, first compound 0.01 µM): 86.1%
- viability, T/C (second compound 0.0316 µM, first compound 0.0316 µM): 118%
- viability, T/C (second compound 0.0316 µM, first compound 0.1 µM): 93.6%
- viability, T/C (second compound 0.0316 µM, first compound 0.316 µM): 86.6%
- viability, T/C (second compound 0.0316 µM, first compound 1 µM): 87.3%
- viability, T/C (second compound 0.1 µM, first compound 0.00316 µM): 101%
- viability, T/C (second compound 0.1 µM, first compound 0.01 µM): 86.4%
- viability, T/C (second compound 0.1 µM, first compound 0.0316 µM): 90.7%
- viability, T/C (second compound 0.1 µM, first compound 0.1 µM): 90.3%
- viability, T/C (second compound 0.1 µM, first compound 0.316 µM): 88.4%
- viability, T/C (second compound 0.1 µM, first compound 1 µM): 87.3%
- viability, T/C (second compound 0.316 µM, first compound 0.00316 µM): 95.2%
- viability, T/C (second compound 0.316 µM, first compound 0.01 µM): 89.5%
- viability, T/C (second compound 0.316 µM, first compound 0.0316 µM): 98.9%
- viability, T/C (second compound 0.316 µM, first compound 0.1 µM): 89.9%
- viability, T/C (second compound 0.316 µM, first compound 0.316 µM): 96.8%
- viability, T/C (second compound 0.316 µM, first compound 1 µM): 89.3%
- viability, T/C (second compound 1 µM, first compound 0.00316 µM): 91.4%
- viability, T/C (second compound 1 µM, first compound 0.01 µM): 93%
- viability, T/C (second compound 1 µM, first compound 0.0316 µM): 89.7%
- viability, T/C (second compound 1 µM, first compound 0.1 µM): 90%
- viability, T/C (second compound 1 µM, first compound 0.316 µM): 90.6%
- viability, T/C (second compound 1 µM, first compound 1 µM): 91.6%
